Values of other authors in patent publication US20160215053A1, “CXCL12 (CHEMOKINE (C-X-C MOTIF) LIGAND 12) AND IGFBP2 INHIBITORS FOR THE APPLICATION IN THE TREATMENT OF DIABETES MELLITUS ASSOCIATED PANCREATIC CANCER” (priority 2013, published 2016).
“Also recorded” adds a separate entry of the source. Like-named read-outs stand apart in the source and are kept apart here. Where no end group is shown, it is not given here.

B1: IL-10: factor that induces PSC activation/trans-differentiation (protein, UniProt P22301 19-178, looked up)
Interleukin-10: SPGQGTQSENSCTHFPGNLPNMLRDLRDAFSRVKTFFQMKDQLDNLLLKESLLEDFKGYLGCQALSEMIQFYLEEVMPQAENQDPDIKAHVNSLGENLKTLRLRLRRCHRFLPCENKSKAVEQVKNAFNKLQEKGIYKAMSEFDIFINYIEAYMTMKIRN
B2: CCK: factor that induces PSC activation/trans-differentiation (peptide, UniProt P06307 21-115, looked up)
Cholecystokinin: QPVPPADPAGSGLQRAEEAPRRQLRVSQRTDGESRAHLGALLARYIQQARKAPSGRMSIVKNLQNLDPSHRISDRDYMGWMDFGRRSAEEYEYPS
modifications: Cholecystokinin
B3: Activin A: factor that induces PSC activation/trans-differentiation (protein, UniProt P08476 311-426, looked up)
Inhibin beta A chain: GLECDGKVNICCKKQFFVSFKDIGWNDWIIAPSGYHANYCEGECPSHIAGTSGSSLSFHSTVINHYRMRGHSPFANLKSCCVPTKLRPMSMLYYDDGQNIIKKDIQNMIVEECGCS
modifications: Inhibin beta A chain

Legend:
PSC = settings: literature references 19-31
BxPC3 cells = settings: reference 40

Molecule | Effect on PSC (PSC) | other results
CCCCC[C@H](O)/C=C/[C@H]1[C@H](O)CC(=O)[C@@H]1C/C=C\CCCC(=O)O [Prosztaglandin E2] | increased proliferation, migration | –
Nc1ccn([C@@H]2O[C@H](CO)[C@@H](O)C2(F)F)c(=O)n1 [gemcitabine] | – | Proportion of cancer cells undergoing gemcitabine induced apoptosis (BxPC3 cells; BxPC3 cells treated with hPSC-CM): 9.4%; Proportion of cancer cells undergoing gemcitabine induced apoptosis (BxPC3 cells; BxPC3 cells, without hPSC-CM treatment): 38.9%
gasztrin: factor that induces PSC activation/trans-differentiation (QGPWLEEEEEAYGWMDF; ends and bridges not checked; UniProt P01350 76-92, looked up) | – | Effect on PSC (PSC; cell proliferation): decreased proliferation; Effect on PSC (PSC; collagen synthesis): increased collagen synthesis,
PDGF | – | Effect on PSC (PSC; cell proliferation): increased proliferation; Effect on PSC (PSC; fibronectin synthesis): increased FN synthesis
CCO [Ethanol] | type-1 collagen production; also recorded: increased αSMA expression | –
TGFα: factor that induces PSC activation/trans-differentiation | increased proliferation, migration | –
CC=O [Acetaldehide] | increased αSMA expression | –
Galektin-1: factor that induces PSC activation/trans-differentiation | increased proliferation | –
bFGF: factor that induces PSC activation/trans-differentiation | increased proliferation | –
TNFα | increased αSMA expression | –
B1 | increased type-1 collagen production | –
B2 | – | Effect on PSC (PSC; cell proliferation): decreased proliferation; Effect on PSC (PSC; collagen synthesis): increased collagen synthesis,
B3 | increased αSMA expression | –
